Data taken from patent US4837228A, “Antiinflammatory and antimicrobial compounds and compositions” (The University of Mississippi, priority 1982, dated 1989).
Converted amounts (≈) assume the structure as drawn. “Also recorded” adds a separate entry of the source. Read-outs that look alike come from different tables or passages of the source.

What was measured:
[1] = system: carrageenan-induced rat paw edema; assay: carrageenan-induced rat paw edema test, intraperitoneal dosing; assay type: in vivo; set-up: key to mean difference in volume (MDV): post-injection minus pre-injection mean paw volume; key to group mean difference score: post-injection minus pre-injection paw volume score; conditions: for percent increase in paw volume / percent of control / mean difference in volume (MDV): Table 1; for group mean difference score / difference of mean scores versus vehicle control (Duncan's test) / difference of mean scores (Duncan's test): Table 3
Protocol: Two methods were used to assess the antiinflammatory activity of the compounds of the invention: the carrageenan-induced rat paw edema test and, the erythrocyte membrane stabilization assay.
In the Rat Paw Edema Test, the rats utilized were divided into test groups of six to eight animals, weighed and marked so that individual rats could be identified; one hour before testing all rats were given a 700 mg/kg intraperitoneal injection of ethyl urethane in distilled water to render them tractable during testing. A circle was drawn, with a felt-tipped marker, around the hind leg of each rat just above the ankle, and each rat was dosed with a test or control compound by intraperitoneal injection. Negative control groups received the vehicle; while positive control groups received a dose of phenylbutazone (PBZ) as shown in Table II. Test compounds were given at doses of 60, 120, 240 and 480 mg/kg. The positive controls were given at 120 mg/kg and 60 mg/kg. Phenylbutazone was prepared for injection by suspending it in normal saline using Tween 60. The rats were then held in group cages for 30 minutes. The volume of the left hind paw was measured using a mercury displacement pleysmograph. The paw is dipped into the mercury until the mercury touches the line above the ankle. Mercury is then withdrawn until the mercury returns to its original level. The amount of mercury removed is measured in milliliters (ml). The mercury can be measured accurately to 0.01 ml. This left hind paw was then injected with 0.1 ml of a 5% w/v solution of viscous carageenan in normal saline. The injection was given between the metatarsal bones using a 27 gauge needle, and the rats then held in group cages for 3 hours. The volume of the left hind paws was measured again in the pleysmograph. The results were computed in the following manner:
a. A mean is taken for both the pre-injection and post-injection paw volume of each test group.
b. The mean difference in volume (MDV) for each test group is computed by subtracting the pre-injection means from the post-injection mean.
c. The percent of control is computed for each test [formula] The percent of control is used to compare the efficacy of the various drug treatments.
d. The percent increase in paw volume is calculated for each group as: [formula] The percent increase is used to compare the amount of edma observed in one experiment to the amount of edma observed in other experiments.
The data from the rat paw test were further analyzed using a one-way analysis of varience (ANOVA) and Duncan's New Multiple Range Test. The pre-injection score of each animal was subtracted from his post-injection score and an analysis of the different scores were conducted.
The procedure described above was followed. […] The vehicle control used was Tween 60, Arlacel and distilled water prepared without CBC(II).

[2] = system: erythrocyte (heat-induced hemolysis); assay: erythrocyte membrane stabilization assay (heat-induced erythrocyte hemolysis); assay type: cell-based
Method in brief: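 In vitro anti-inflammatory screen measuring stabilization of erythrocytes against heat-induced hemolysis, using 40% or 20% RBC suspensions. Compounds dissolved in physiologic saline or suspended in 2% ethanol in saline, pH adjusted to 7.4.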

Staphylococcus aureus = assay: MIC, two-fold (broth) serial dilution, S. aureus; assay type: cell-based; conditions: Staphylococcus aureus, read-out: MIC
Method in brief: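 Inoculation used a single loop of diluted (1:10) 24-hour broth culture suspended in sterile water, with incubation extended to 48–72 hours for fungi and M. smegmatis. Activity is read qualitatively by well diffusion on agar and quantitatively as MIC via twofold dilution series.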

Bacillus subtilis = assay: agar well diffusion assay, B. subtilis; assay type: cell-based; conditions: from edge of agar well
Protocol: (§1) Both qualitative and quantitative screens were performed. Qualitative screening was accomplished using the agar well diffusion assay technque while quantitative screening was accomplished by the two-fold (broth) serial dilution method to determine the minimum inhibitory concentration (MIC). Innoculation was accomplished with one loop-full of a 1:10 dilution of the 24-hour-old broth culture, (fungal cultures and M.smegmatis more often required 48 to 72 hours of incubation) of the test organisms in sterile water. Streptomycin sulfate was used as a positive control for antibacterial activity while amphitericin B was used as an antifungal positive control. Organisms utilized in the screens included gram-positive, gram-negative, and acid-fast bacteria as well as different types of fungi. […] An intermediate type activity is seen where R is hydrogen. However, where R is lengthened up to C15 a decrease in activity was noted. Total saturation of the two double bonds in the compounds having a methyl side chain lead, in most cases, to an increase in both antifungal and antibacterial activity.

Aspergillus niger = assay: agar well diffusion assay, A. niger; assay type: cell-based; conditions: from edge of agar well
Protocol: as §1

[3] = Rattus norvegicus, ip, read-out: inhibition of carrageenan-induced rat paw edema

With CCCCCc1cc(O)c2c(c1)OC(C)(CCC=C(C)C)C=C2 (stereo not shown) [CBC (I), 2-methyl-2(4'methyl-pent-3'-enyl)-5-hydroxy-7-pentyl chromene] the inhibition at 120 mg/kg [1, 3] was 70%, the inhibition at 240 mg/kg [1, 3] was 86% and the inhibition at 480 mg/kg ([1]; Rattus norvegicus, ip, Table 5, 480 mg/kg i.p.) was 100%. The “percent increase in paw volume” value ([1]; 120 mg/kg i.p.) was 12.729%, the percent of control ([1]; 120 mg/kg i.p.) was 30.000% and the “mean difference in volume (MDV)” value ([1]; 120 mg/kg i.p., paw volume measured in ml) was 0.139. For the same molecule, the “mean difference in volume (MDV)” value ([1]; 240 mg/kg i.p.) was 0.004, the “percent increase in paw volume” value ([1]; 240 mg/kg i.p.) was 0.365% and the percent of control ([1]; 240 mg/kg i.p.) was 0.927%. The “mean difference in volume (MDV)” value ([1]; 480 mg/kg i.p.) was -0.043, the “percent increase in paw volume” value ([1]; 480 mg/kg i.p.) was -3.708% and the percent of control ([1]; 480 mg/kg i.p.) was -9.189%. The “group mean difference score” value ([1]; 120 mg/kg) was 0.139, the “difference of mean scores versus vehicle control (Duncan's test)” value ([1]; 120 mg/kg, ** p 0.01) was 0.324 and the “group mean difference score” value ([1]; 240 mg/kg) was 0.004. For the same molecule, the “difference of mean scores versus vehicle control (Duncan's test)” value ([1]; 240 mg/kg, ** p 0.01) was 0.458, the “group mean difference score” value ([1]; 480 mg/kg) was 0.043 and the “difference of mean scores versus vehicle control (Duncan's test)” value ([1]; 480 mg/kg, ** p 0.01) was 0.505. For the same molecule, the “difference of mean scores (Duncan's test)” value ([1]; CBC 120 mg/kg versus CBC 240 mg/kg, * p 0.05) was 0.134, the “difference of mean scores (Duncan's test)” value ([1]; CBC 120 mg/kg versus CBC 480 mg/kg, ** p 0.01) was 0.181 and the “difference of mean scores (Duncan's test)” value ([1]; CBC 120 mg/kg versus PBZ 120 mg/kg) was 0.033. For the same molecule, the “difference of mean scores (Duncan's test)” value ([1]; CBC 240 mg/kg versus CBC 480 mg/kg) was 0.047, the “antiinflammatory effect in words” value ([1]; i.p.) was “strong antiinflammatory effects” and the “significance of difference (ANOVA, Duncan's test)” value ([1]; i.p., difference scores, listed as CBC) was “The 120 mg/kg dose of CBC differed significantly from the 240 and 480 mg/kg doses of CBC; also recorded: the 480 mg/kg dose of CBC differed significantly from the 120 mg/kg dosage of PBZ”. The inhibition at 12.5 µM ([2]; Erythrocyte, Table 8, 1.25 × 10^-5 M) was 55%, the inhibition at 25 µM ([2]; Erythrocyte, Table 8, 2.5 × 10^-5 M, read-out: inhibition of heat-induced erythrocyte hemolysis) was 67% and the inhibition at 50 µM ([2]; Erythrocyte, Table 8, 5 × 10^-5 M) was 79%. The inhibition at 100 µM ([2]; Erythrocyte, Table 9 Test 2 (40% RBC), 1.0 × 10^-4 M, read-out: percent inhibition of heat-induced erythrocyte hemolysis) was 40%, the inhibition at 20 µM ([2]; Erythrocyte, Table 9 Test 2 (40% RBC), 2.0 × 10^-5 M, read-out: percent inhibition of heat-induced erythrocyte hemolysis) was 26% and the inhibition at 20 µM ([2]; Erythrocyte, Table 9 Test 3 (20% RBC), 2.0 × 10^-5 M, read-out: percent inhibition of heat-induced erythrocyte hemolysis) was 26%. For the same molecule, the inhibition at 2 µM ([2]; Erythrocyte, Table 9 Test 3 (20% RBC), 2.0 × 10^-6 M, read-out: percent inhibition of heat-induced erythrocyte hemolysis) was 7%, the inhibition at 100 µM ([2]; Erythrocyte, read-out: inhibition of heat-induced erythrocyte hemolysis, Table 8, 1 × 10^-4 M) was 98% and the inhibition at 100 µM ([2]; Erythrocyte, read-out: percent inhibition of heat-induced erythrocyte hemolysis, Table 9 Test 3 (20% RBC), 1.0 × 10^-4 M) was 37%. For the same molecule, the inhibition at 20 µM ([2]; Erythrocyte, 2×10^-5 M, read-out: inhibition of heat-induced red cell hemolysis) was 26%, the inhibition at 100 µM ([2]; Erythrocyte, 10^-4 M, read-out: inhibition of heat-induced red cell hemolysis) was 35% and the “percent inhibition of heat-induced erythrocyte hemolysis” value ([2]; Table 9 Test 3 (20% RBC), 1.0 × 10^-4 M, 100 µM, listed as Cannabichromene) was 33%. The “times more protective of red cell membranes than an equivalent amount of PBZ” value ([2]; actual activity, may have been) was 3 to 30 times, the MIC (Staphylococcus aureus; 24 h) was 1.56 µg/mL (≈ 4.96 µM) and the MIC (Staphylococcus aureus; 48 h) was 1.56 µg/mL (≈ 4.96 µM). For the same molecule, the “width of inhibition zone” value (Bacillus subtilis; 24 hr) was 8.0 mm, the “width of inhibition zone” value (Bacillus subtilis; 48 hr) was 5.0 mm and the “width of inhibition zone” value (Aspergillus niger; 48 hr) was 2. mm. For the same molecule, the “width of inhibition zone” value (Aspergillus niger; 72 hr) was 2. mm.
